Experimental data from paper PMC3815952 (Microbial biotechnology, 2009).

How the values were obtained:
RHA1_ro00230 = RHA1_ro00230 (Rhodococcus jostii, UniProt Q0SK70); assay: calorimetry, non-linear regression; assay type: biochemical; settings: Tris-SO4 pH 8.5, 30°C
RPA1163 = RPA1163 (Rhodopseudomonas palustris, UniProt Q6NAM1); assay: calorimetry, non-linear regression; assay type: biochemical; settings: Tris-SO4 pH 8.5, 30°C
Adeh3811 = assay: calorimetry, non-linear regression; assay type: biochemical, Anaeromyxobacter dehalogenans; settings: Tris-SO4 pH 8.5, 30°C
Bpro4516 = settings: Tris-SO4 pH 8.5, 30°C
Bcen2424–2051 = settings: read-out: Substrates / Chloroacetate / KM; Tris-SO4 pH 8.5, 30°C

Chain of RHA1_ro00230 (Q0SK70 1-254): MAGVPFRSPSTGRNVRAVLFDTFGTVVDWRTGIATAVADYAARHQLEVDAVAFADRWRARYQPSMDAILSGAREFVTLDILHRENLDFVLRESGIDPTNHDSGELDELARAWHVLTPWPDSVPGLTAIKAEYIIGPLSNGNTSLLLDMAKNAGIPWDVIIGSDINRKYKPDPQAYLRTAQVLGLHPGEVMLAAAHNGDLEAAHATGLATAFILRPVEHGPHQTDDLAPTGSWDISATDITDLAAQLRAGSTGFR
Chain of RPA1163 (Q6NAM1 whole entry): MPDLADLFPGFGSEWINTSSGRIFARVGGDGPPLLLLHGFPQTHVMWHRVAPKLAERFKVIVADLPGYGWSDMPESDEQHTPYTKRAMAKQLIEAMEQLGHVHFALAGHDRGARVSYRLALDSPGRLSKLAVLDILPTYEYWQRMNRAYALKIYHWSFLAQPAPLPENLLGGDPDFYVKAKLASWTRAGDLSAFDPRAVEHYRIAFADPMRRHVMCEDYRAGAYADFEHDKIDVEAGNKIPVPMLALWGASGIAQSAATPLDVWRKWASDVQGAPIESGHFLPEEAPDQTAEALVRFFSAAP

Compound | Substrates / Fluoroacetate / KM (μM) (RHA1_ro00230) | Substrates / Fluoroacetate / KM (μM) (RPA1163) | Substrates / Fluoroacetate / KM (μM) (Adeh3811) | Substrates / Fluoroacetate / KM (μM) (Bpro4516) | Substrates / Chloroacetate / KM (μM) (RHA1_ro00230) | Substrates / Chloroacetate / KM (μM) (RPA1163) | Km (Bcen2424–2051)
O=C(O)CF [fluoroacetate] | 20 000 ± 2000 µM | 3 300 ± 200 µM | 13 500 ± 300 µM | 19 000 ± 2000 µM | – | – | –
O=C(O)CCl [chloroacetate] | – | – | – | – | 19 000 ± 2000 µM | 1 400 ± 400 µM | 17 ± 2 µM
